The text below walks through data of patent publication US10695310B2, “D-serine treatment for neurological disorders that cause seizures” (Florida State University Research Foundation, Inc., priority 2013, dated 2020).

Test [1] addresses T1, conventional diheteroemric NMDARs (Rattus norvegicus, UniProt P35439).
T1 construct: effect of D-serine on EPSCs for L1 and Str synapses of rat brains; from tissue; host or cells: rat brain; synaptic currents recorded from single neurons (Str input)
Briefly: NMDAR-mediated EPSC at Str synapses. As to conditions: 10 and 100 micromolar; pure NMDAR-mediated EPSC, +30 mV. Format: cell-based, Sprague-Dawley rats. The text has this: (§1) FIG. 6 is a set of graphs showing the effect of D-serine on EPSCs for L1 and Str synapses of rat brains. The left panel depicts the average consecutive records (≤10) of pure NMDAR-mediated EPSC (pharmacologically isolated in a mixture containing NBQX and picrotoxin—PTX 50 micromolar, —to block AMPA-kainite receptors and GABAA-mediated inhibition) evoked in a single neuron (+30 mV) under the indicated conditions. The middle panel depicts the average percentage change in amplitude for both responses and the time course of these changes with D-serine administration times marked by the shaded region on the time plots.
(§2) The NMDARs at L1 inputs are GluN3-containing triheteromeric NMDARS, whereas the NMDARs at Str inputs are conventional diheteroemric NMDARs. To directly investigate Ca(2+)-permeability of NMDARs at L1 and Str synapses of Sprague-Dawley rats, shifts in reversal potential (Erev) of the synaptically activated currents were measured during local perfusion of isosmotic solutions with different extracellular Ca(2+) concentrations.

In test [2] the test system is LIII of the medial entorhinal cortex. Description: Stereological cell count in LIII of the medial entorhinal cortex, Nissl-stained brain slices of pilocarpine treated rats. Format: in vivo, Sprague-Dawley rats. The protocol: (§3) Male Sprague-Dawley rats weighing about 200 grams were treated with a single systemic treatment of the cholinergic muscarinic agonist pilocarpine to mimic temporal lobe epilepsy as described by Kumar and Buckmaster in Journal of Neuroscience 26: 4613-4623 (2006), which is incorporated by reference herein. The rats were unilaterally implanted with a brain cannula and allowed to recover for three days prior to being treated with pilocarpine. The pilocarpine dose was 380 mg/kg. Following control of status epilepticus with diazepam and a latent period, 90% of the pilocarpine treated rats developed chronic spontaneous seizures with an underlying pathology that mimicked the kind seen in human patients with temporal lobe epilepsy. After pilocarpine treatment, a test group of rats was administered D-serine and a control group of rats was administered aCSF daily for 12 days. The first administration occurred two hours after pilocarpine treatment. The rats were video-monitored forty hours per week for frank seizure activity for the duration of the infusions. Following the treatment regimen, the rats were euthanized and their brains removed following intra-aortal perfusion with a fixative. Horizontal brain slices 50 micrometers thick from both groups were Nissl-stained for stereological quantification of cell populations in LIII of the medial entorhinal cortex.

Test [3] relates to GluN3-containing triheteromeric NMDARS. Briefly: NMDAR-mediated EPSC at L1 synapses. Format: cell-based, Sprague-Dawley rats. As to conditions: 10 and 100 micromolar; pure NMDAR-mediated EPSC, +30 mV; suppression greatest at the higher concentration.
Excerpt: as §1, §2

Test [4] relates to pilocarpine treated rats. Briefly: Video-monitored seizure activity in pilocarpine treated rats (temporal lobe epilepsy model), D-serine infused at the medial entorhinal cortex. Format: in vivo, Sprague-Dawley rats. The protocol: as §3, with “infusions.” for “infusions. Following the treatment regimen, the rats were euthanized and their brains removed following intra-aortal perfusion with a fixative. Horizontal brain slices 50 micrometers thick from both groups were Nissl-stained for stereological quantification of cell populations in LIII of the medial entorhinal cortex.”

With `N[C@H](CO)C(=O)O` [D-serine], in test [1], the “effect on Str EPSCs” value is recorded as “neither consistent nor statistically significant”. For the same molecule, in test [2] (LIII of medial entorhinal cortex, after 12 days treatment following pilocarpine, naive control 159 ± 21, vehicle 77 ± 1), the “Mean est. cell count (left + right)” value amounted to 140 ± 10. Also, in test [2] (after pilocarpine treatment), the “reduction of cell loss in LIII” value is recorded as “about 80%”. In addition, the “cell loss in LIII from brain slice images” value in test [2] (left medial entorhinal cortex of cannulated rats, FIG. 3) is given as “prevented cell loss in LIII”. For the same molecule, in test [3], the “effect on L1 EPSCs” value is listed as “significantly suppressed”. In test [4] (D-serine daily for 12 days, 90% without D-serine), the “percentage of pilocarpine treated rats that developed seizures” value worked out at 25%. In addition, the rats seizure-free in test [4] (pilocarpine treated rats, D-serine daily for 12 days via brain cannula, video-monitored forty hours per week) turned out to be 75%.
